Earlier results as cited in patent US20100196443A1, “USE OF CORDYCEPS SPECIES OR EXTRACT THEREOF IN THE EGG PRODUCTION” (A P NUTRIPHARM PTE. LTD., priority 2007, published 2010).

Test system: RNA cell
Conditions: Siev et al., 1969

## Nc1ncnc2c1ncn2[C@@H]1O[C@H](CO)C[C@H]1O [cordycepin, 3-deoxyadenosine]
  nucleolar RNA synthesis: can inhibit nucleolar RNA synthesis
